From US11932634B2 (Gilead Sciences, Inc., priority 2021, dated 2024)

What was measured:
[1] = system: Jurkat NFκB-luciferase cells; assay: Jurkat NFκB-Luciferase Assay; assay type: cell-based; settings: Homo sapiens; Jurkat NFκB-luciferase cells activated with anti-CD3 antibody (OKT3), 2.5 hrs at 37° C., One-Glo Ex; geometric mean; read-out: DGK NFKb Luciferase EC50;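 also: bioluminescence read-out normalized to DMSO basal activation and to maximum enhancement at 1 µM compound, rising signal indicating stronger T-cell activation through DGKα inhibition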
human DGKα = molecular target: T1, human DGKα (Homo sapiens, UniProt P23743); assay: DGKα Biochemical Activity Assay (ADP-Glo);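 also: recombinant enzyme converting diacylglycerol in lipid micelles with ATP, ADP formed detected by luminescence, IC50 from a four-parameter nonlinear fit, geometric mean across experiments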
T1 construct: purchased Carna Biosciences'; inferred from the same paragraph's 'obtained from Carna Biosciences')
T1 sequence (P23743 whole entry): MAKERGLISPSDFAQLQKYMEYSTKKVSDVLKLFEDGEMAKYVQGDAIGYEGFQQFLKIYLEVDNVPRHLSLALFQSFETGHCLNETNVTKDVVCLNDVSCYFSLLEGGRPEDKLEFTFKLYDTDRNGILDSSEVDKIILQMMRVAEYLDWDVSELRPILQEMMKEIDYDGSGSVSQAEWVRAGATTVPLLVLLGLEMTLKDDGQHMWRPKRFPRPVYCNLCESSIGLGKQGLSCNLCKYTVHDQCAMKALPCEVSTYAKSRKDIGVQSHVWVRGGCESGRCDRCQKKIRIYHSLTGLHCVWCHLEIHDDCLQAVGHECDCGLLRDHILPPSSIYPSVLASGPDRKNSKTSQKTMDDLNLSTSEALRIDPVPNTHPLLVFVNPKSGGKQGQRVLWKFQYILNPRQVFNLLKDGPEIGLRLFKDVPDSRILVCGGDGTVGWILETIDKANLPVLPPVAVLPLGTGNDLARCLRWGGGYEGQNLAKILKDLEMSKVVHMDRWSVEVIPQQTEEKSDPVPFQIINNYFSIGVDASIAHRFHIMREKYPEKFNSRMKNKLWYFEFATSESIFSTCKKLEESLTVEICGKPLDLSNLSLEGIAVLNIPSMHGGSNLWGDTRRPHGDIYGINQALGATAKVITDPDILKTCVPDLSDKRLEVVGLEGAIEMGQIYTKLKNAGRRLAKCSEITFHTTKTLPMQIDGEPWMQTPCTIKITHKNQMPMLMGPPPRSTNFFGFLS
Text: Alternatively, the enzymatic activity of human DGKα was monitored in a biochemical assay in the presence or absence of compounds and using micelles containing 18:1 Diacylglycerol (DAG), 16:0-18:1 PS (POPS) and Octylglucoside as substrate. DGKα activity led to conversion of DAG and ATP to Phosphatidic Acid (PA) and ADP. Levels of ADP were monitored by bioluminescence using the ADP-Glo Kinase Assay (Promega) and were indicative of DGKα activity.
Ten nanoliters of test compound dissolved in DMSO at various concentrations were dispensed into a 384-well low volume nonbinding service white plates (Corning #3824) using a Labcyte Echo instrument. Recombinant DGKα Biosciences) in assay buffer (5 μL in 50 mM MOPS [3-(N-morpholino) propanesulfonic acid], pH 7.2; 0.0025% Triton X-100; 1 mM dithiothreitol; 5 mM MgCl2, 200 μM ATP) was added to the compound-containing plate and was incubated for 15 minutes at 25° C. A substrate solution (5 μL in 1.7 mM 1,2-dioleoyl-sn-glycerol [18:1 DAG], 13.5 mM 1-palmitoyl-2-oleoyl-sn-glycero-3-phospho-L-serine [16:0-18:1 PS](POPS), 2 μM CaCl2), 100 mM Octylglucoside (OG), 1 mM DTT) (obtained from Carna Biosciences) diluted in DGK ALPHA assay buffer was then added to start the reaction. Final concentrations were 1 nM DGKα, 100 μM ATP, 1 μM calcium chloride, 0.85 mM 1,2-dioleoyl-sn-glycerol (18:1 DAG), 6.75 mM 1-palmitoyl-2-oleoyl-sn-glycero-3-phospho-L-serine (16:0-18:1 PS) (POPS), 1 μM CaCl2), 50 mM Octylglucoside (OG) and 5 mM MgCl2. The reaction mixture was incubated at 25° C. for 1 hour. ADP-Glo Reagent (10 μL, 10 mM Mg added) provided by the kit was added to each well and incubated at 25° C. for 40 minutes. Then, 20 μL of Kinase Detection Reagent was added and incubated at 25° C. for 40 minutes. Luciferase activity of each well was measured via luminescence on an Envision plate reader (PerkinElmer).
Least squares curve fittings were performed using a four-parameter variable slope nonlinear regression model. […] IC50 values from multiple experiments were averaged by geometric mean and the standard deviation was calculated.

Structure (SMILES) | EC50 [1] [nM] | IC50 (human DGKα) [nM]
[2H]C([2H])([2H])n1c(=O)nc(N2CCOCc3c(C#CC(C)(C)C(F)(F)F)cccc32)c2c(F)cccc21 [Example 109, 5-fluoro-1-(methyl-d3)-4-(6-(4,4,4-trifluoro-3,3-dimethylbut-1-yn-1-yl)-2,3-dihydrobenzo[e][1,4]oxazepin-1(5H)-yl)quinazolin-2(1H)-one] | 0.501 | 6.05
CC(C)(C#N)C#Cc1cccc2c1COCCN2c1nc(=O)[nH]c2cccc(F)c12 [Example 110, 4-(1-(5-fluoro-2-oxo-1,2-dihydroquinazolin-4-yl)-1,2,3,5-tetrahydrobenzo[e][1,4]oxazepin-6-yl)-2,2-dimethylbut-3-ynenitrile] | 2.82 | 6.52
[2H]C([2H])([2H])n1c(=O)nc(N(CC(F)F)c2cccc(C#CC(C)(C)O)c2F)c2c(F)cccc21 [Example 111, 4-[N-(2,2-difluoroethyl)-2-fluoro-3-(3-hydroxy-3-methyl-but-1-ynyl)anilino]-5-fluoro-1-(trideuteriomethyl)quinazolin-2-one] | 9.32 | 3.11
CC(F)(F)C1(C#Cc2cccc3c2COCCN3c2nc(=O)[nH]c3cccc(F)c23)CC1 [Example 112, 4-(6-((1-(1,1-difluoroethyl)cyclopropyl)ethynyl)-2,3-dihydrobenzo[e][1,4]oxazepin-1(5H)-yl)-5-fluoroquinazolin-2(1H)-one] | 0.973 | 23.6
CC(C)(O)C#Cc1nccc(N(CC(F)F)c2nc(=O)[nH]c3cccc(F)c23)c1F [Example 113, 4-[2,2-difluoroethyl-[3-fluoro-2-(3-hydroxy-3-methyl-but-1-ynyl)-4-pyridyl]amino]-5-fluoro-1H-quinazolin-2-one] | 66.3 | 10.4
CC(C)(O)C#Cc1cc(F)cc(N(CC(F)F)c2nc(=O)[nH]c3c(Cl)cc(F)cc23)c1 [Example 114, 8-chloro-4-[N-(2,2-difluoroethyl)-3-fluoro-5-(3-hydroxy-3-methyl-but-1-ynyl)anilino]-6-fluoro-1H-quinazolin-2-one] | 112 | 445
CC1(C#Cc2nccc(N(CC(F)F)c3nc(=O)[nH]c4cccc(F)c34)c2F)CC1 [Example 115, 4-[2,2-difluoroethyl-[3-fluoro-2-[2-(1-methylcyclopropyl)ethynyl]-4-pyridyl]amino]-5-fluoro-1H-quinazolin-2-one] | 1.21 | 6.05
O=c1nc(N2CCCc3c2ccnc3C#CC2(C(F)(F)F)CC2)c2c(F)c(F)ccc2[nH]1 [Example 116, 5,6-difluoro-4-[5-[2-[1-(trifluoromethyl)cyclopropyl]ethynyl]-3,4-dihydro-2H-1,6-naphthyridin-1-yl]-1H-quinazolin-2-one] | 0.945 | 4.07
[2H]C([2H])([2H])n1c(=O)nc(N(CC(F)F)c2ccnc(C#CC3(C)CC3)c2)c2c(F)c(F)ccc21 [Example 117, 4-[2,2-difluoroethyl-[2-[2-(1-methylcyclopropyl)ethynyl]-4-pyridyl]amino]-5,6-difluoro-1-(trideuteriomethyl)quinazolin-2-one] | 4.7 | 3.36
O=c1nc(N(CC(F)F)c2ccnc(C#CC3(C(F)(F)F)CC3)c2F)c2c(F)cccc2[nH]1 [Example 118, 4-[2,2-difluoroethyl-[3-fluoro-2-[2-[1-(trifluoromethyl)cyclopropyl]ethynyl]-4-pyridyl]amino]-5-fluoro-1H-quinazolin-2-one] | 3.73 | 25.7
CC(C)(C#N)C#Cc1nccc(N(CC(F)F)c2nc(=O)[nH]c3cccc(F)c23)c1F [Example 119, 4-[4-[2,2-difluoroethyl-(5-fluoro-2-oxo-1H-quinazolin-4-yl)amino]-3-fluoro-2-pyridyl]-2,2-dimethyl-but-3-ynenitrile] | 7.11 | 10.8
[2H]C([2H])([2H])n1c(=O)nc(N(CC(F)F)c2ccnc(C#Cc3cnn(C)c3)c2)c2c(F)c(F)ccc21 [Example 120, 4-[2,2-difluoroethyl-[2-[2-(1-methylpyrazol-4-yl)ethynyl]-4-pyridyl]amino]-5,6-difluoro-1-(trideuteriomethyl)quinazolin-2-one] | 34.9 | 5.77
CC(C)(C#Cc1nccc(N(CC(F)F)c2nc(=O)[nH]c3cccc(F)c23)c1F)C(F)F [Example 121, 4-[[2-(4,4-difluoro-3,3-dimethyl-but-1-ynyl)-3-fluoro-4-pyridyl]-(2,2-difluoroethyl)amino]-5-fluoro-1H-quinazolin-2-one] | 8.44 | 20.7
O=c1nc(N(CC(F)F)c2ccnc(C#CC3CC3)c2F)c2c(F)cccc2[nH]1 [Example 122, 4-[[2-(2-cyclopropylethynyl)-3-fluoro-4-pyridyl]-(2,2-difluoroethyl)amino]-5-fluoro-1H-quinazolin-2-one] | 3.46 | 7
[2H]C([2H])([2H])n1c(=O)nc(N(CC(F)F)c2ccnc(C#CC(C)(C)C(F)F)c2F)c2c(F)cccc21 [Example 123, 4-[[2-(4,4-difluoro-3,3-dimethyl-but-1-ynyl)-3-fluoro-4-pyridyl]-(2,2-difluoroethyl)amino]-5-fluoro-1-(trideuteriomethyl)quinazolin-2-one] | 2.39 | 6.41
[2H]C([2H])([2H])n1c(=O)nc(N(CC(F)F)c2ccnc(C#CC3(C(F)(F)F)CC3)c2F)c2c(F)cccc21 [Example 124, 4-[2,2-difluoroethyl-[3-fluoro-2-[2-[1-(trifluoromethyl)cyclopropyl]ethynyl]-4-pyridyl]amino]-5-fluoro-1-(trideuteriomethyl)quinazolin-2-one] | 1.27 | 12
CC(C)(C#Cc1nccc(N(CC(F)F)c2nc(=O)[nH]c3cccc(F)c23)c1F)C(F)(F)F [Example 125, 4-[2,2-difluoroethyl-[3-fluoro-2-(4,4,4-trifluoro-3,3-dimethyl-but-1-ynyl)-4-pyridyl]amino]-5-fluoro-1H-quinazolin-2-one] | 2.18 | 40.8
O=c1nc(N(CC(F)F)c2ccnc(C#CC3(C(F)F)CC3)c2F)c2c(F)cccc2[nH]1 [Example 126, 4-[2,2-difluoroethyl-[2-[2-[1-(difluoromethyl)cyclopropyl]ethynyl]-3-fluoro-4-pyridyl]amino]-5-fluoro-1H-quinazolin-2-one] | 3.37 | 18
CC(C)(O)C#Cc1cccc2c1CCCN2c1nc(=O)[nH]c2cccc(Cl)c12 [Example 127, 5-chloro-4-[5-(3-hydroxy-3-methyl-but-1-ynyl)-3,4-dihydro-2H-quinolin-1-yl]-1H-quinazolin-2-one] | 3.92 | 8.66
[2H]C([2H])([2H])n1c(=O)nc(N(CC(F)F)c2ccnc(C#CC(C)(C)O)c2F)c2c(F)cccc21 [Example 128, 4-[2,2-difluoroethyl-[3-fluoro-2-(3-hydroxy-3-methyl-but-1-ynyl)-4-pyridyl]amino]-5-fluoro-1-(trideuteriomethyl)quinazolin-2-one] | 41.2 | 7.36
[2H]C([2H])([2H])n1c(=O)nc(N(CC(F)F)c2ccnc(C#CC3(C(F)F)CC3)c2F)c2c(F)cccc21 [Example 129, 4-[2,2-difluoroethyl-[2-[2-[1-(difluoromethyl)cyclopropyl]ethynyl]-3-fluoro-4-pyridyl]amino]-5-fluoro-1-(trideuteriomethyl)quinazolin-2-one] | 4.26 | 2.82
